The IC50 is the concentration that inhibits the measured activity by half.

Among the data in US9139567B2, “Arylpyrazole ethers as inhibitors of leukotriene A4 hydrolase” (Boehringer Ingelheim International GmbH, priority 2011, dated 2015) are IC50 values, retold here.

The target of one experiment is T1, human LTA4 hydrolase (Homo sapiens, UniProt P09960).
T1 sequence (P09960 1-611): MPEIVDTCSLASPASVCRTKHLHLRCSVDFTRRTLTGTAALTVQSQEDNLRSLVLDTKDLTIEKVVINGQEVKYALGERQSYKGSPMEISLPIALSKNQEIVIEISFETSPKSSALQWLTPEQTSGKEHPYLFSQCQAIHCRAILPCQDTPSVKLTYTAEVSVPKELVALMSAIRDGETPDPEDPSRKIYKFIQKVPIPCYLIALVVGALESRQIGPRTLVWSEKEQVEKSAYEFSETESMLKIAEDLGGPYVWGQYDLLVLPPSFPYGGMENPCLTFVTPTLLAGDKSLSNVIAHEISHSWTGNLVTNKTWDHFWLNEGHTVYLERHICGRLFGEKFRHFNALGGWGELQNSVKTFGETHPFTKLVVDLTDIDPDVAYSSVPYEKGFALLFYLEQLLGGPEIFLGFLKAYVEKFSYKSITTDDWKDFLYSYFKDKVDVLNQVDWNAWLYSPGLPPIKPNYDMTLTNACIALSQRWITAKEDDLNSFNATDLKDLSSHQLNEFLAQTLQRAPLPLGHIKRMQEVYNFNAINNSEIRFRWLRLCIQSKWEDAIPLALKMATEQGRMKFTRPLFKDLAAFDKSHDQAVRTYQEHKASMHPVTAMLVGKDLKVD
The experiment in a line: LTA4H enzyme assay (cleavage of Arg-AMC, fluorescence). Format: biochemical. The note with it: LTA4H enzyme 1 nM, Arg-AMC substrate 50 μM, room temperature 1 h. The protocol:
Compounds are assessed for the ability to interact with human LTA4 hydrolase in an enzymatic assay that measures the ability of the enzyme to cleave the peptide bond of arginyl-aminomethylcoumarin (Arg-AMC). LTA4H Enzyme (1 nM final), Arg-AMC substrate (50 μM final), and compound are combined in a reaction buffer (50 mM Tris-HCl (pH 7.5), 100 mM KCl, 0.5% bovine serum albumin) at room temperature for 1 h. The formation of product is assessed by measuring the fluorescence of aminomethylcoumarin product (excitation wavelength 380 nm/emission wavelength 460 nm).

The subject of experiment [1] is LTB4 production in human whole blood. The experiment in a line: LTB4 production inhibition assay in human whole blood (calcimycin-stimulated). Format: cell-based. Conditions: heparinized human whole blood, 15 min 37° C., calcimycin 20 μM 30 min, plasma LTB4 by HTRF. The protocol: Compounds of the invention are additionally tested in a human whole blood assay to determine their ability to inhibit the synthesis of LTB4 in a cellular system. Compounds are combined with heparinized human whole blood and incubated for 15 minutes at 37° C. Calcimycin (20 μM final, prepared in phosphate-buffered saline, pH 7.4) is then added and the mixture is incubated for another 30 minutes at 37° C. The samples are centrifuged for 5 min at low speed (1500×g) and the plasma layer is removed. Plasma LTB4 concentrations are then measured using an antibody-based homogenous time-resolved fluorescence method (CisBio, Bedford, Mass.).

On to `c1cc(-c2ccc(Oc3ccc(OCC4COCCN4)cc3)nc2)[nH]n1` (racemic) [Example 16, 3-[(4-{[5-(1H-pyrazol-5-yl)pyridin-2-yl]oxy}phenoxy)methyl]morpholine], for which the values for the IC50 (at human LTA4 hydrolase; in experiment [1]) were 0.0002 µM and 0.052 µM, respectively.

On to `O=C1CC[C@H](COc2ccc(Oc3ccc(-c4ccn[nH]4)cc3)cc2)N1` [Example 1, (5R)-5-({4-[4-(1H-pyrazol-5-yl)phenoxy]phenoxy}methyl)pyrrolidin-2-one], for which the IC50 came out at 0.0002 µM against human LTA4 hydrolase and 0.246 µM in experiment [1].

In the case of `O=C1CC[C@@H](COc2ccc(Oc3ccc(-c4ccn[nH]4)cc3)cc2)N1` [Example 2, (5S)-5-({4-[4-(1H-pyrazol-5-yl)phenoxy]phenoxy}methyl)pyrrolidin-2-one], the values for the IC50 (against human LTA4 hydrolase; in experiment [1]) were 0.0002 µM and 0.163 µM, respectively.

Turning to `O=C1CC[C@@H](COc2ccc(Oc3ccc(-c4ccn[nH]4)cn3)cc2)N1` [Example 3, (5S)-5-[(4-{[5-(1H-pyrazol-5-yl)pyridin-2-yl]oxy}phenoxy)methyl]pyrrolidin-2-one], the IC50 against human LTA4 hydrolase turned out to be 0.0002 µM; in experiment [1], 0.142 µM.

Turning to `c1cc(-c2ccc(Oc3ccc(O[C@@H]4CCOC4)cc3)cc2)[nH]n1` [Example 4, 5-(4-{4-[(3R)-tetrahydrofuran-3-yloxy]phenoxy}phenyl)-1H-pyrazole], the figures for the IC50 (against human LTA4 hydrolase; in experiment [1]) were 0.0039 µM and 1.04 µM, respectively.

As to `c1cc(-c2ccc(Oc3ccc(OCC4CCCO4)cc3)cc2)[nH]n1` (stereo not drawn) [Example 5, 5-{4-[4-(tetrahydrofuran-2-ylmethoxy)phenoxy]phenyl}-1H-pyrazole], the IC50 at human LTA4 hydrolase amounted to 0.0068 µM; in experiment [1], 1.35 µM.

Take `O=C1CC[C@H](Oc2ccc(Oc3ccc(-c4ccn[nH]4)cc3)cn2)CN1` [Example 6, (5S)-5-({5-[4-(1H-pyrazol-5-yl)phenoxy]pyridin-2-yl}oxy)piperidin-2-one]: the IC50 amounted to 0.0035 µM against human LTA4 hydrolase and 1.08 µM in experiment [1].

As for `CN1CC(COc2ccc(Oc3ccc(-c4ccn[nH]4)cc3)cc2)CC1=O` (stereo not drawn) [Example 7, 1-methyl-4-({4-[4-(1H-pyrazol-5-yl)phenoxy]phenoxy}methyl)pyrrolidin-2-one], the IC50 worked out at 0.0005 µM at human LTA4 hydrolase and 0.28 µM in experiment [1].

As to `O=C1CCC(Oc2ccc(Oc3ccc(-c4ccn[nH]4)cc3)cc2)CN1` (stereo not drawn) [Example 8, 5-{4-[4-(1H-pyrazol-5-yl)phenoxy]phenoxy}piperidin-2-one], the values for the IC50 (against human LTA4 hydrolase; in experiment [1]) were 0.0005 µM and 0.222 µM, respectively.

In the case of `O=C1NCC[C@@H]1Oc1ccc(Oc2ccc(-c3ccn[nH]3)cc2)cc1` [Example 9, (3S)-3-{4-[4-(1H-pyrazol-5-yl)phenoxy]phenoxy}pyrrolidin-2-one], the IC50 is 0.0767 µM on human LTA4 hydrolase and ≥ 5 µM in experiment [1].

As for `O=C1NC(COc2ccc(Oc3ccc(-c4ccn[nH]4)cc3)cc2)CO1` (stereo not drawn) [Example 10, 4-({4-[4-(1H-pyrazol-5-yl)phenoxy]phenoxy}methyl)-1,3-oxazolidin-2-one], the values for the IC50 (on human LTA4 hydrolase; in experiment [1]) were 0.0002 µM and 0.126 µM, respectively.

For the compound `O=C1NCC(COc2ccc(Oc3ccc(-c4ccn[nH]4)cc3)cc2)O1` (stereo not drawn) [Example 11, 5-({4-[4-(1H-pyrazol-5-yl)phenoxy]phenoxy}methyl)-1,3-oxazolidin-2-one], the IC50 amounted to 0.0013 µM at human LTA4 hydrolase and 0.573 µM in experiment [1].

For `O=C1N[C@H](COc2ccc(Oc3ccc(-c4ccn[nH]4)cc3)cc2)CO1` [Example 12, (4R)-4-({4-[4-(1H-pyrazol-5-yl)phenoxy]phenoxy}methyl)-1,3-oxazolidin-2-one], the IC50 is 0.0001 µM against human LTA4 hydrolase and 0.104 µM in experiment [1].

Regarding `O=C1CC[C@H](Oc2ccc(Oc3ccc(-c4cc[nH]n4)cc3)cc2)CN1` [Example 13, (5S)-5-{4-[4-(1H-pyrazol-3-yl)phenoxy]phenoxy}piperidin-2-one], the IC50 against human LTA4 hydrolase was 0.0005 µM; in experiment [1], 0.214 µM.

Take `O=C1CC[C@@H](Oc2ccc(Oc3ccc(-c4cc[nH]n4)cc3)cc2)CN1` [Example 14, (5R)-5-{4-[4-(1H-pyrazol-3-yl)phenoxy]phenoxy}piperidin-2-one]: the IC50 against human LTA4 hydrolase was 0.0003 µM; in experiment [1], 0.178 µM.

For `O=C1N[C@@H](COc2ccc(Oc3ccc(-c4ccn[nH]4)cc3)cc2)CO1` [Example 15, (4S)-4-({4-[4-(1H-pyrazol-5-yl)phenoxy]phenoxy}methyl)-1,3-oxazolidin-2-one], the results for the IC50 (against human LTA4 hydrolase; in experiment [1]) were 0.0003 µM and 0.15 µM, respectively.

With `O=C1CC[C@@H](Oc2ccc(Oc3ccc(-c4ccn[nH]4)cn3)cc2)CN1` [Example 17, (5R)-5-(4-{[5-(1H-pyrazol-5-yl)pyridin-2-yl]oxy}phenoxy)piperidin-2-one], the IC50 stood at 0.0015 µM on human LTA4 hydrolase and 0.425 µM in experiment [1].

For the compound `O=C1CC[C@@H](Oc2ccc(Cc3ccc(-c4ccn[nH]4)cc3)cc2)CN1` [Example 18, (5R)-5-{4-[4-(1H-pyrazol-5-yl)benzyl]phenoxy}piperidin-2-one], the concentration for half-maximal inhibition (IC50) was found to be 0.0008 µM against human LTA4 hydrolase and 0.581 µM in experiment [1].

For `O=C1CC[C@@H](Oc2ccc(Oc3ccc(-c4ccn[nH]4)cc3)cn2)CN1` [Example 19, (5R)-5-({5-[4-(1H-pyrazol-5-yl)phenoxy]pyridin-2-yl}oxy)piperidin-2-one], the IC50 at human LTA4 hydrolase was 0.0019 µM; in experiment [1] it was 0.554 µM.

`O=C1N[C@@H](COc2ccc(Cc3ccc(-c4ccn[nH]4)cc3)cc2)CO1` [Example 20, (4S)-4-({4-[4-(1H-pyrazol-5-yl)benzyl]phenoxy}methyl)-1,3-oxazolidin-2-one]: the results for the IC50 (at human LTA4 hydrolase; in experiment [1]) were 0.0006 µM and 0.229 µM, respectively.

With `O=C1CCCN1CCOc1ccc(Oc2ccc(-c3ccn[nH]3)cc2)cc1` [Example 21, 1-(2-{4-[4-(lH-pyrazol-5-yl)phenoxy]phenoxy}ethyl)pyrrolidin-2-one], the IC50 on human LTA4 hydrolase amounted to 0.0007 µM; in experiment [1] it was 0.813 µM.

As to `c1cc(-c2ccc(Oc3ccc(OCCN4CCOCC4)cc3)cc2)[nH]n1` [Example 22, 4-(2-{4-[4-(1H-pyrazol-5-yl)phenoxy]phenoxy}ethyl)morpholine], the IC50 is 0.0002 µM against human LTA4 hydrolase and 0.179 µM in experiment [1].

For `O=C1CCCN1CCCOc1ccc(Oc2ccc(-c3ccn[nH]3)cc2)cc1` [Example 23, 1-(3-{4-[4-(1H-pyrazol-5-yl)phenoxy]phenoxy}propyl)pyrrolidin-2-one], the IC50 on human LTA4 hydrolase worked out at 0.0007 µM; in experiment [1], 0.529 µM.

`O=C1N[C@H](COc2ccc(Oc3ccc(-c4ccn[nH]4)cn3)cc2)CO1` [Example 24, (4R)-4-[(4-{[5-(1H-pyrazol-5-yl)pyridin-2-yl]oxy}phenoxy)methyl]-1,3-oxazolidin-2-one]: the IC50 at human LTA4 hydrolase is 0.0002 µM; in experiment [1] it was 0.123 µM.

In the case of `c1cc(-c2ccc(Cc3ccc(OCCN4CCOCC4)cc3)cc2)[nH]n1` [Example 25, 4-(2-{4-[4-(1H-pyrazol-5-yl)benzyl]phenoxy}ethyl)morpholine], the IC50 stood at 0.0005 µM against human LTA4 hydrolase and 0.123 µM in experiment [1].

As for `Cn1ccnc1COc1ccc(Oc2ccc(-c3ccn[nH]3)cc2)cc1` [Example 26, 5-(4-{4-[(1-methyl-1H-imidazol-2-yl)methoxy]phenoxy}phenyl)-1H-pyrazole], the IC50 on human LTA4 hydrolase was 0.0012 µM; in experiment [1], 2.11 µM.

Regarding `c1cc(-c2ccc(Oc3ccc(OCc4cnc[nH]4)cc3)cc2)[nH]n1` [Example 27, 5-{4-[4-(1H-imidazol-5-ylmethoxy)phenoxy]phenyl}-1H-pyrazole], the IC50 on human LTA4 hydrolase was 0.0022 µM; in experiment [1] it was 1.84 µM.
